# Values joined by “and” are separate entries in the source; they are usually repeats but may differ in a detail not shown here. Identical values can stand only once.
# Assay: Biomol Green Assay: Biomol Green (Enzo) […] formed from a biochemical reaction. Because of its high sensitivity, the assay is suitable for monitoring enzyme activities at very early substrate conversions requiring very low amount of enzymes.
row,IC50,Structure (SMILES)
1,25 nM and 15 nM,Cc1cc(OCc2nnc(SC3C=CCCC3)n2-c2cccnc2)ccc1C#CCOC(=O)NN1CCN(C)CC1 (stereo not drawn)
2,26 nM,Cc1cc(OCc2cnc(SC3C=CCCC3)n2-c2cccnc2)ccc1C#CCOC(=O)NCCN1CCN(C(C)C)CC1 (stereo not drawn)
3,260 nM,Cc1cc(OCc2nnc(CC3CCCC3)n2-c2cccnc2)ccc1C#CCNC(=O)OC(C)(C)C

# Reference: ChEMBL document CHEMBL5728225, “Modulators of P97 AAA ATPase activity” (2021)
